Test results from ChEMBL document CHEMBL3856212, “Synthesis, anti-proliferative and genotoxicity studies of 6-chloro-5-(2-substituted-ethyl)-1,3-dihydro-2H-indol-2-ones and 6-chloro-5-(2-chloroethyl)-3-(alkyl/ary-2-ylidene)indolin-2-ones” (Eur J Med Chem, 2016).

How the values were obtained:
[1] = Cytotoxicity against human CCRF-CEM cells assessed as growth inhibition after 48 hrs by SRB assay; format: functional
[2] = Cytotoxicity against human SR cells assessed as growth inhibition after 48 hrs by SRB assay; format: functional
[3] = Cytotoxicity against human A549 cells assessed as growth inhibition after 48 hrs by SRB assay; format: functional; conditions: A549, 48 h
[4] = Cytotoxicity against human HOP62 cells assessed as growth inhibition after 48 hrs by SRB assay; format: functional; conditions: HOP-62, 48 h
[5] = Cytotoxicity against human NCI-H226 cells assessed as growth inhibition after 48 hrs by SRB assay; format: functional; conditions: NCI-H226, 48 h
[6] = Cytotoxicity against human NCI-H460 cells assessed as growth inhibition after 48 hrs by SRB assay; format: functional; conditions: NCI-H460, 48 h
[7] = Cytotoxicity against human NCI-H522 cells assessed as growth inhibition after 48 hrs by SRB assay; format: functional; conditions: NCI-H522, 48 h
[8] = Cytotoxicity against human HCC2998 cells assessed as growth inhibition after 48 hrs by SRB assay; format: functional; conditions: HCC 2998, 48 h
[9] = Cytotoxicity against human HCT116 cells assessed as growth inhibition after 48 hrs by SRB assay; format: functional; conditions: HCT-116, 48 h
[10] = Cytotoxicity against human SNB75 cells assessed as growth inhibition after 48 hrs by SRB assay; format: functional; conditions: SNB-75, 48 h
[11] = Cytotoxicity against human U251 cells assessed as growth inhibition after 48 hrs by SRB assay; format: functional; conditions: U-251, 48 h
[12] = Cytotoxicity against human M14 cells assessed as growth inhibition after 48 hrs by SRB assay; format: functional; conditions: M14, 48 h
[13] = Cytotoxicity against human SK-MEL-28 cells assessed as growth inhibition after 48 hrs by SRB assay; format: functional; conditions: SK-MEL-28, 48 h
[14] = Cytotoxicity against human SK-MEL-5 cells assessed as growth inhibition after 48 hrs by SRB assay; format: functional; conditions: SK-MEL-5, 48 h
[15] = Cytotoxicity against human OVCAR4 cells assessed as growth inhibition after 48 hrs by SRB assay; format: functional; conditions: OVCAR-4, 48 h
[16] = Cytotoxicity against human OVCAR8 cells assessed as growth inhibition after 48 hrs by SRB assay; format: functional; conditions: OVCAR-8, 48 h
[17] = Cytotoxicity against human 786-0 cells assessed as growth inhibition after 48 hrs by SRB assay; format: functional; conditions: 786-0, 48 h
[18] = Cytotoxicity against human SN12C cells assessed as growth inhibition after 48 hrs by SRB assay; format: functional
[19] = Cytotoxicity against human Hs 578T cells assessed as growth inhibition after 48 hrs by SRB assay; format: functional
[20] = Cytotoxicity against human MDA-MB-468 cells assessed as growth inhibition after 48 hrs by SRB assay; format: functional; conditions: MDA-MB-468, 48 h
[21] = Cytotoxicity against human NCI-H226 cells assessed as assessed as growth inhibition at 10^-5 M after 48 hrs by SRB assay relative to control; format: functional; conditions: NCI-H226, 48 h, read-out: GI
[22] = Cytotoxicity against human NCI-H460 cells assessed as assessed as growth inhibition at 10^-5 M after 48 hrs by SRB assay relative to control; format: functional; conditions: NCI-H460, 48 h, read-out: GI
[23] = Cytotoxicity against human HCT116 cells assessed as assessed as growth inhibition at 10^-5 M after 48 hrs by SRB assay relative to control; format: functional; conditions: HCT-116, 48 h, read-out: GI
[24] = Cytotoxicity against human HCT15 cells assessed as assessed as growth inhibition at 10^-5 M after 48 hrs by SRB assay relative to control; format: functional; conditions: HCT-15, 48 h, read-out: GI
[25] = Cytotoxicity against human SF268 cells assessed as assessed as growth inhibition at 10^-5 M after 48 hrs by SRB assay relative to control; format: functional; conditions: SF-268, 48 h, read-out: GI
[26] = Cytotoxicity against human SNB75 cells assessed as assessed as growth inhibition at 10^-5 M after 48 hrs by SRB assay relative to control; format: functional; conditions: SNB-75, 48 h, read-out: GI
[27] = Cytotoxicity against human U251 cells assessed as assessed as growth inhibition at 10^-5 M after 48 hrs by SRB assay relative to control; format: functional; conditions: U-251, 48 h, read-out: GI
[28] = Cytotoxicity against human OVCAR3 cells assessed as assessed as growth inhibition at 10^-5 M after 48 hrs by SRB assay relative to control; format: functional; conditions: OVCAR-3, 48 h, read-out: GI
[29] = Cytotoxicity against human A498 cells assessed as assessed as growth inhibition at 10^-5 M after 48 hrs by SRB assay relative to control; format: functional; conditions: A498, 48 h, read-out: GI
[30] = Cytotoxicity against human RXF393 cells assessed as assessed as growth inhibition at 10^-5 M after 48 hrs by SRB assay relative to control; format: functional; conditions: RXF 393, 48 h, read-out: GI
[31] = Cytotoxicity against human PC3 cells assessed as assessed as growth inhibition at 10^-5 M after 48 hrs by SRB assay relative to control; format: functional; conditions: PC-3, 48 h, read-out: GI
Mus musculus [32] = species: Mus musculus; assay: Genotoxicity in mouse EAC cells at 250 uM after 24 hrs by micronucleus assay (reference value: 3.5 +/- 0.30%); format: toxicity, cell-based; conditions: ehrlich
Mus musculus [33] = species: Mus musculus; assay: Genotoxicity in mouse EAC cells at 500 uM after 24 hrs by micronucleus assay (reference value: 3.5 +/- 0.30%); format: toxicity, cell-based; conditions: ehrlich
[34] = Induction of apoptosis in mouse EAC cells at 125 uM after 24 hrs by acridine orange dye-based fluorescence microscopy (reference value: 0.66 +/- 0.33%); format: cell-based; conditions: ehrlich
[35] = read-out: LD50 (the source's name)

## O=C1Cc2cc(CCn3cncn3)c(Cl)cc2N1
[1]
  GI50: 3500 nM
  TGI: > 1000 nM
[1]; [35]
  CC50: > 1000 nM
[2]
  GI50: 1000 nM
  TGI: > 1000 nM
[2]; [35]
  CC50: > 1000 nM
[3]
  GI50: 1650 nM
  TGI: > 1000 nM
[3]; [35]
  CC50: > 1000 nM
[4]
  GI50: 2990 nM
  TGI: > 1000 nM
[4]; [35]
  CC50: > 1000 nM
[5]
  GI50: 1000 nM
  TGI: > 1000 nM
[5]; [35]
  CC50: > 1000 nM
[6]
  GI50: 6860 nM
  TGI: > 1000 nM
[6]; [35]
  CC50: > 1000 nM
[7]
  GI50: 5290 nM
  TGI: > 1000 nM
[7]; [35]
  CC50: > 1000 nM
[8]
  GI50: 1000 nM
  TGI: > 1000 nM
[8]; [35]
  CC50: > 1000 nM
[9]
  GI50: 3200 nM
  TGI: > 1000 nM
[9]; [35]
  CC50: > 1000 nM
[10]
  GI50: 1320 nM
  TGI: > 1000 nM
[10]; [35]
  CC50: > 1000 nM
[11]
  GI50: 1450 nM
  TGI: > 1000 nM
[11]; [35]
  CC50: > 1000 nM
[12]
  GI50: 3960 nM
  TGI: > 1000 nM
[12]; [35]
  CC50: > 1000 nM
[13]
  GI50: 2100 nM
  TGI: > 1000 nM
[13]; [35]
  CC50: > 1000 nM
[14]
  GI50: 1010 nM
  TGI: > 1000 nM
[14]; [35]
  CC50: > 1000 nM
[15]
  GI50: 1000 nM
  TGI: > 1000 nM
[15]; [35]
  CC50: > 1000 nM
[16]
  GI50: 6940 nM
  TGI: > 1000 nM
[16]; [35]
  CC50: > 1000 nM
[17]
  GI50: 1000 nM
  TGI: > 1000 nM
[17]; [35]
  CC50: > 1000 nM
[18]
  GI50: 1000 nM
  TGI: > 1000 nM
[18]; [35]
  CC50: > 1000 nM
[19]
  GI50: 7200 nM
  TGI: > 1000 nM
[19]; [35]
  CC50: > 1000 nM
[20]
  GI50: 2180 nM
  TGI: 9540 nM
[20]; [35]
  CC50: > 1000 nM
[21]
  inhibition of growth at 10 µM: 25.2%
[22]
  inhibition of growth at 10 µM: 16.1%
[23]
  inhibition of growth at 10 µM: 21%
[24]
  inhibition of growth at 10 µM: 45.4%
[25]
  inhibition of growth at 10 µM: -10.2%
[26]
  inhibition of growth at 10 µM: 36.5%
[27]
  inhibition of growth at 10 µM: 26.6%
[28]
  inhibition of growth at 10 µM: 28.3%
[29]
  inhibition of growth at 10 µM: 52.9%
[30]
  inhibition of growth at 10 µM: 38%
[31]
  inhibition of growth at 10 µM: 13.6%
Mus musculus [32]
  Activity: 3.5%
Mus musculus [33]
  Activity: 5.23%
[34]
  Activity: 0.6%
